Measurements published in the kinase profiling compilation of Christmann-Franck et al. (2016).

Key:
Test in all cases: KINOMEscan competition binding
Conditions in all cases: compound 10.0 µM
AAK1 (human) = AAK1 (human) (UniProt Q2M2I8)
ACVR1 (human) = ACVR1 (human) (UniProt Q04771)
ACVRL1 (human) = ACVRL1 (human) (UniProt P37023)
AKT1 (human) = AKT1 (human) (UniProt P31749)
CAMKK1 (human) = CAMKK1 (human) (UniProt Q8N5S9)
CAMKK2 (human) = CAMKK2 (human) (UniProt Q96RR4)
CDK13 (human) = CDK13 (human) (UniProt Q14004)
CDK4 CCND3 (human) = CDK4 CCND3 (human) (UniProt P11802+P30281)
CRK2 (P.falciparum) = CRK2 (P.falciparum) (UniProt P61075)
DSTYK (human) = DSTYK (human) (UniProt Q6XUX3)
EPHB1 (human) = EPHB1 (human) (UniProt P54762)
EPHB4 (human) = EPHB4 (human) (UniProt P54760)
FGFR3 (human) = FGFR3 (human) (UniProt P22607)
FGFR4 (human) = FGFR4 (human) (UniProt P22455)
FRK (human) = FRK (human) (UniProt P42685)
ITK (human) = ITK (human) (UniProt Q08881)
[1] = target: JAK2 JH1 catalytic (human) (UniProt O60674)
LTK (human) = LTK (human) (UniProt P29376)
MAP3K1 (human) = MAP3K1 (human) (UniProt Q13233)
MAP3K3 (human) = MAP3K3 (human) (UniProt Q99759)
MAP3K4 (human) = MAP3K4 (human) (UniProt Q9Y6R4)
MAP3K9 (human) = MAP3K9 (human) (UniProt P80192)
MAPK13 (human) = MAPK13 (human) (UniProt O15264)
MARK2 (human) = MARK2 (human) (UniProt Q7KZI7)
MARK2 (human), sequence (Q7KZI7 whole entry, looked up): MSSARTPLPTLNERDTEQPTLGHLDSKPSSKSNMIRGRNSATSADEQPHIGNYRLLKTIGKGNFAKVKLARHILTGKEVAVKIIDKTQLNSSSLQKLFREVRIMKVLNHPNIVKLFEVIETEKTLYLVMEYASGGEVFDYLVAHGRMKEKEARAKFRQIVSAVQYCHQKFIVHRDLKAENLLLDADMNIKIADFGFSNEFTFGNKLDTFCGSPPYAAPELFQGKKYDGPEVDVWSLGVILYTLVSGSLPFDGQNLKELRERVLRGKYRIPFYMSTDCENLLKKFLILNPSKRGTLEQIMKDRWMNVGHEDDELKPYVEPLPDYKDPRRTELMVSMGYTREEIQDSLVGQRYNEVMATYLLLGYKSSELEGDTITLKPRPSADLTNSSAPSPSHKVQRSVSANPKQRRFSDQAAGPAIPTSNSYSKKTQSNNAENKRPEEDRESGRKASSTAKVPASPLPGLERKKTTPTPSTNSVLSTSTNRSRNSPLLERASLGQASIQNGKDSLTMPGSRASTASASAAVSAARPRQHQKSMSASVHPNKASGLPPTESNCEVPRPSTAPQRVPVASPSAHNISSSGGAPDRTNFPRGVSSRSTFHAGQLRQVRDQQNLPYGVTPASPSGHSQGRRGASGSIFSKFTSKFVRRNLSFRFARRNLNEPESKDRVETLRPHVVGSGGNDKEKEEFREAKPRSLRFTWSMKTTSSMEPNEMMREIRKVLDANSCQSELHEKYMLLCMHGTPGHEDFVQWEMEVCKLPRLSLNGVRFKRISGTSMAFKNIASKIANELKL

MATK (human) = MATK (human) (UniProt P42679)
MATK (human), sequence (P42679 whole entry, looked up): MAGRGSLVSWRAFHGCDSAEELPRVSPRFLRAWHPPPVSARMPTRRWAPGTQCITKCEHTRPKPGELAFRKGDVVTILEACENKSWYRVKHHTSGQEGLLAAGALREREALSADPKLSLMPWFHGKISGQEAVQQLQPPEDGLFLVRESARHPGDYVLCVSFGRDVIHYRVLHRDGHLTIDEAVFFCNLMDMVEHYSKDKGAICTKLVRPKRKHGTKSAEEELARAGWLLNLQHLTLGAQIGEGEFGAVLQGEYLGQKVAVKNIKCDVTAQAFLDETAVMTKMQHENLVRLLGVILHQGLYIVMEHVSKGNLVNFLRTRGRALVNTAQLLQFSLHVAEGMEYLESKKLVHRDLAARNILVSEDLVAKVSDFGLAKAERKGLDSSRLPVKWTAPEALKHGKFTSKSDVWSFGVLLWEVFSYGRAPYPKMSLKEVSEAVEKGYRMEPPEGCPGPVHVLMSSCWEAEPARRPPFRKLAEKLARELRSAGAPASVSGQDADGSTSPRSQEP

MINK1 (human) = MINK1 (human) (UniProt Q8N4C8)
MUSK (human) = MUSK (human) (UniProt O15146)
MUSK (human), sequence (O15146 whole entry, looked up): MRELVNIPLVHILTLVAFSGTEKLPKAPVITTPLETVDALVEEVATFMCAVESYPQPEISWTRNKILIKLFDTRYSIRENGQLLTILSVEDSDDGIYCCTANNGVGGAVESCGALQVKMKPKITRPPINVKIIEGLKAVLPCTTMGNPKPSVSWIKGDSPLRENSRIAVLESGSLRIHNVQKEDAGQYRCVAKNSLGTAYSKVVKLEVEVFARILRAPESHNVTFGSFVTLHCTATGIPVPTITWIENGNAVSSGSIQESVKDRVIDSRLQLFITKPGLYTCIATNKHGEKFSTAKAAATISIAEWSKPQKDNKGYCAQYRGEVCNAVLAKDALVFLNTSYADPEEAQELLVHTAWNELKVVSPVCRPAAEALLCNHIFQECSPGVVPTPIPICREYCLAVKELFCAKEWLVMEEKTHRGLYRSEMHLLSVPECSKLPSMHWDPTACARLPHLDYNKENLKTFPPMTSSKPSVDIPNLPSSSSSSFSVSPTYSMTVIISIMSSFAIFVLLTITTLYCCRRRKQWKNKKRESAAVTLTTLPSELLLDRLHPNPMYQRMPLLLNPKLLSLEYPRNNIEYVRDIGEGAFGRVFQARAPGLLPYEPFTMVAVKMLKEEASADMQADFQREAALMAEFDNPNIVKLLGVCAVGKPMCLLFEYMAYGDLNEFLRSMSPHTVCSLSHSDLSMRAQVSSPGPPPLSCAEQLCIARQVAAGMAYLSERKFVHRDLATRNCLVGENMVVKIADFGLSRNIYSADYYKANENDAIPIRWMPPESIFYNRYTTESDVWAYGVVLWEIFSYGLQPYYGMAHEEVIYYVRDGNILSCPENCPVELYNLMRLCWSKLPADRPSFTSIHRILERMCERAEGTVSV

NEK5 (human) = NEK5 (human) (UniProt Q6P3R8)
NEK6 (human) = NEK6 (human) (UniProt Q9HC98)
NEK7 (human) = NEK7 (human) (UniProt Q8TDX7)
PAK7 (human) = PAK7 (human) (UniProt Q9P286)
PIK3C2G (human) = PIK3C2G (human) (UniProt O75747)
PLK2 (human) = PLK2 (human) (UniProt Q9NYY3)
PLK2 (human), sequence (Q9NYY3 whole entry, looked up): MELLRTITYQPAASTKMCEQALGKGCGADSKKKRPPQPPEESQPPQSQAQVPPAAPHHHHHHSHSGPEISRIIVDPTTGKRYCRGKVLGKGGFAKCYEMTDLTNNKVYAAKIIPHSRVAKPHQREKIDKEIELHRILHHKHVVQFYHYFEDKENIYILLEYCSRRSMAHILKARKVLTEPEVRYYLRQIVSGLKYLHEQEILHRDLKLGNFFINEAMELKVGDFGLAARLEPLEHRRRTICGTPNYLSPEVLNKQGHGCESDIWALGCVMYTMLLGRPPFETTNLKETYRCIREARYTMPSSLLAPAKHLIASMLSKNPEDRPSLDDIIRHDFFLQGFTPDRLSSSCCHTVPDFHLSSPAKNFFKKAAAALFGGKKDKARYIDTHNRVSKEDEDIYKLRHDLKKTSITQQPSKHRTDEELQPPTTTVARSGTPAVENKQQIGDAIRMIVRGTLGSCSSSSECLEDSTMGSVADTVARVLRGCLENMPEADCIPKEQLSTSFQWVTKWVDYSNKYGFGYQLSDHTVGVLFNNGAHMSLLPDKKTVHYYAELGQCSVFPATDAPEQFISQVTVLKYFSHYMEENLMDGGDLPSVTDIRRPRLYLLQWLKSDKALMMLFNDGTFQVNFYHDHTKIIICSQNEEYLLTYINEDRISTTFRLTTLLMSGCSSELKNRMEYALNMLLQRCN

RIOK2 (human) = RIOK2 (human) (UniProt Q9BVS4)
RIOK2 (human), sequence (Q9BVS4 whole entry, looked up): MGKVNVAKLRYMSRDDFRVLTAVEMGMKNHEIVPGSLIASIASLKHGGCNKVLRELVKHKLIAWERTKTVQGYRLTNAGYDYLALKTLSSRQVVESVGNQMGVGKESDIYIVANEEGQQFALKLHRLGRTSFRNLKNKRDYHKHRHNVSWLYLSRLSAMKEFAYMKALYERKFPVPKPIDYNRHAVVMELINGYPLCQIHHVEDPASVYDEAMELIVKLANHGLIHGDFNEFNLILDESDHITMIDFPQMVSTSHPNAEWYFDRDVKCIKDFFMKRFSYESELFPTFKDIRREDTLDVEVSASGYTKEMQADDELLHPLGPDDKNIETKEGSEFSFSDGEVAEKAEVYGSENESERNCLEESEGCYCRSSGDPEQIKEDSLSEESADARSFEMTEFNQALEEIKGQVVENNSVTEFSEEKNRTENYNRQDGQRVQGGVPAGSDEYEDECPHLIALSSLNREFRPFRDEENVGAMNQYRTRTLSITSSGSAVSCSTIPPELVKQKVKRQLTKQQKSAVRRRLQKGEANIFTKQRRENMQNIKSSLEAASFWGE

ROCK2 (human) = ROCK2 (human) (UniProt O75116)
SIK2 (human) = SIK2 (human) (UniProt Q9H0K1)
SIK2 (human), sequence (Q9H0K1 whole entry, looked up): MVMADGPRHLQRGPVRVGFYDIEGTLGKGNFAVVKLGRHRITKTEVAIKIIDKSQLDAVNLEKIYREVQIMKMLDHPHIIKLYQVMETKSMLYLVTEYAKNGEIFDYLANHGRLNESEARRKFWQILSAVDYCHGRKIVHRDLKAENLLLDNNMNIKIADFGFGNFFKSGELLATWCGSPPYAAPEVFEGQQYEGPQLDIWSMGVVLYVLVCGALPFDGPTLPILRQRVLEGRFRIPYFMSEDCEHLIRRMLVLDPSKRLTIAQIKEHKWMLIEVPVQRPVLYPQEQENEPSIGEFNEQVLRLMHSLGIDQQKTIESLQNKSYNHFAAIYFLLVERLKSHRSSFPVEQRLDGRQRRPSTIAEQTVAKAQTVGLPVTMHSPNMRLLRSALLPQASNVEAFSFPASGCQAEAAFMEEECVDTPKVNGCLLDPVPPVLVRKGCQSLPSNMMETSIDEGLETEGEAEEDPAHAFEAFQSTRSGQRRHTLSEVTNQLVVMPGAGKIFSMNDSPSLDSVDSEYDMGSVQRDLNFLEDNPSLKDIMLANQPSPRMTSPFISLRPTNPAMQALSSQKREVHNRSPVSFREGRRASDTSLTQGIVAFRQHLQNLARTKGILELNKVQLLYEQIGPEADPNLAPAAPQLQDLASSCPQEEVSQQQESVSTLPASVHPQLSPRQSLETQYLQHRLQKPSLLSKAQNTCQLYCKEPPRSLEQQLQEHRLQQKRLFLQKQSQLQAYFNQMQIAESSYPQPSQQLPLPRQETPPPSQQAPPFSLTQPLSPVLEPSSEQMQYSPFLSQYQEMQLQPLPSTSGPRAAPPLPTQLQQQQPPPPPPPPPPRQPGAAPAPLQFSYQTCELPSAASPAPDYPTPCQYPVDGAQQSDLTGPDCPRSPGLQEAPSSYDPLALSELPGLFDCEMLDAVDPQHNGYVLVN

STK17A (human) = STK17A (human) (UniProt Q9UEE5)
STK24 (human) = STK24 (human) (UniProt Q9Y6E0)
STK4 (human) = STK4 (human) (UniProt Q13043)
[2] = target: TYK2 JH2 pseudokinase (human) (UniProt P29597)

AKT1 (human), sequence (P31749 whole entry, looked up): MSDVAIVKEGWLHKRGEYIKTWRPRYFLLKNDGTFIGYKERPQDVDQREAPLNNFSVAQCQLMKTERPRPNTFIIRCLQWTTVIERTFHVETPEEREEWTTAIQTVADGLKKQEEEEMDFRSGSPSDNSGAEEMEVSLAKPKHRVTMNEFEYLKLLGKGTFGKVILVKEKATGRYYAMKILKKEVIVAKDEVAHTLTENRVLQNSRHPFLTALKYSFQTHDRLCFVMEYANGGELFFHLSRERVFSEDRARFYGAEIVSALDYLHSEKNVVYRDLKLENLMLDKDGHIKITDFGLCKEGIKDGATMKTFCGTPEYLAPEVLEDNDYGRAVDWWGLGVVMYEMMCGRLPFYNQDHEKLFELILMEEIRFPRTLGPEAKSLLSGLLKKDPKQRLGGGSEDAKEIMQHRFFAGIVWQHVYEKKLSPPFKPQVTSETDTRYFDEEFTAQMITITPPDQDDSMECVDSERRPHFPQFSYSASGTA

Compound CCCS(=O)(=O)Nc1ccc(F)c(C(=O)c2c[nH]c3ncc(Cl)cc23)c1F has a kinase still bound, per cent of control (AAK1 (human)) of 84%, a kinase still bound, per cent of control (ACVR1 (human)) of 100% and a kinase still bound, per cent of control (ACVRL1 (human)) of 100%. It also gave a kinase still bound, per cent of control (AKT1 (human)) of 100%, a kinase still bound, per cent of control (CAMKK1 (human)) of 75% and a kinase still bound, per cent of control (CAMKK2 (human)) of 79%. For the same compound, the kinase still bound, per cent of control (CDK13 (human)) was 100%, the kinase still bound, per cent of control (CDK4 CCND3 (human)) was 70% and the kinase still bound, per cent of control (CRK2 (P.falciparum)) was 91%. The kinase still bound, per cent of control (DSTYK (human)) was 54%, the kinase still bound, per cent of control (EPHB1 (human)) was 100% and the kinase still bound, per cent of control (EPHB4 (human)) was 100%. For the same compound, the kinase still bound, per cent of control (FGFR3 (human)) was 71%, the kinase still bound, per cent of control (FGFR4 (human)) was 100% and the kinase still bound, per cent of control (FRK (human)) was 19%. It also gave a kinase still bound, per cent of control (ITK (human)) of 99%, a kinase still bound, per cent of control [1] of 44% and a kinase still bound, per cent of control (LTK (human)) of 34%. For the same compound, the kinase still bound, per cent of control (MAP3K1 (human)) was 73%, the kinase still bound, per cent of control (MAP3K3 (human)) was 61% and the kinase still bound, per cent of control (MAP3K4 (human)) was 92%. It also gave a kinase still bound, per cent of control (MAP3K9 (human)) of 94%, a kinase still bound, per cent of control (MAPK13 (human)) of 85% and a kinase still bound, per cent of control (MARK2 (human)) of 92%. For the same compound, the kinase still bound, per cent of control (MATK (human)) was 90%, the kinase still bound, per cent of control (MINK1 (human)) was 28% and the kinase still bound, per cent of control (MUSK (human)) was 71%. It also gave a kinase still bound, per cent of control (NEK5 (human)) of 100%, a kinase still bound, per cent of control (NEK6 (human)) of 91% and a kinase still bound, per cent of control (NEK7 (human)) of 59%. It also gave a kinase still bound, per cent of control (PAK7 (human)) of 44%, a kinase still bound, per cent of control (PIK3C2G (human)) of 55% and a kinase still bound, per cent of control (PLK2 (human)) of 83%. For the same compound, the kinase still bound, per cent of control (RIOK2 (human)) was 3%, the kinase still bound, per cent of control (ROCK2 (human)) was 81% and the kinase still bound, per cent of control (SIK2 (human)) was 84%. The kinase still bound, per cent of control (STK17A (human)) was 44%, the kinase still bound, per cent of control (STK24 (human)) was 77% and the kinase still bound, per cent of control (STK4 (human)) was 38%. It also gave a kinase still bound, per cent of control [2] of 100%.
